From patent US20250092065A1, “2-(INDAZOL-5-YL)-6-(PIPERIDIN-4-YL)-1,7-NAPHTHYRIDINE DERIVATIVES AND RELATED COMPOUNDS AS MODULATORS FOR SPLICING NUCLEIC ACIDS AND FOR THE TREATMENT OF PROLIFERATIVE DISEASES” (REMIX THERAPEUTICS INC., priority 2022, published 2025)

Assays:
K562 cells = assay: Cell Titer Glo 2.0 cell viability (toxicity) assay, K562; conditions: 500 cells/well, 72 hours
HTT = assay: HiBiT protein abundance assay, HTT (K562 HiBiT knock-in); format: cell-based, human; conditions: HiBiT knock-in K562 cells, 24 hours, top dose 10 μM
In short: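 Luminescence readout: Nano-Glo HiBiT lytic detection after 24 h compound exposure of K562 HiBiT knock-in cells, 10000 cells/well. Dosing 10-pt, 3-fold, top 10 μM final. % response vs untreated parental K562 and DMSO controls; 4PL fit, IC50 = concentration giving 50% protein abundance.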

Target C = assay: RT-qPCR canonical junction panel assay, Target C mRNA; format: cell-based; conditions: Table 4, read-out: Target C IC50 (decrease in CJ mRNA levels)
In short: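 A673 or K562 cells treated with compound; CJ mRNA quantified by junction-spanning RT-qPCR probe after cDNA synthesis, normalised to GAPDH, GUSB or PPIA and DMSO (2^−ΔΔCt), scaled to set ΔCt assay window; IC50 from 4-parameter fit of CJ decrease.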

| Structure (SMILES) | IC50 (HTT) [µM] | IC50 (Target C) [µM] | Effect of Exemplary Compounds on Cell Viability, K562 (K562 cells) |
| --- | --- | --- | --- |
| CN[C@@H]1CCN(c2ccc3nc(-c4cc(F)c5nc(C)cn5c4)ncc3n2)C1 [Compound 331, (3R)-1-(2-{8-fluoro-2-methylimidazo[1,2-a]pyridin-6-yl}pyrido[3,2-d]pyrimidin-6-yl)-N-methylpyrrolidin-3-amine] | 0.1 to 1 | 0.1 to 1 | B (B represents 100-1000 nM) |
| CN[C@H]1CCN(c2ccc3nc(-c4cc(F)c5nc(C)cn5c4)ncc3n2)C1 [Compound 332, (S)-1-(2-(8-fluoro-2-methylimidazo[1,2-a]pyridin-6-yl)pyrido[3,2-d]pyrimidin-6-yl)-N-methylpyrrolidin-3-amine] | 0.1 to 1 | 0.1 to 1 | B (B represents 100-1000 nM) |
| COCc1nc2cc(O)c(-c3ccc4nc(N5CCC(NC(C)(C)C)C5)ccc4n3)cc2o1 (stereo not drawn) [Compound 334, 6-{6-[3-(tert-butylamino)pyrrolidin-1-yl]-1,5-naphthyridin-2-yl}-2-(methoxymethyl)-1,3-benzoxazol-5-ol] | 0.1 to 1 | 0.1 to 1 | B (B represents 100-1000 nM) |
| COc1cc2nc(C3COC3)oc2cc1-c1ccc2nc(N3CCC(NC(C)(C)C)C3)ccc2n1 (stereo not drawn) [Compound 335] | 1 to 10 | 1 to 10 | C (C represents 1000-9999 nM) |
| CNC1CCN(c2ccc3nc(-c4cc5cn(C)nc5c(C)c4O)ncc3n2)C1 (stereo not drawn) [Compound 337, 2,7-dimethyl-5-{6-[3-(methylamino)pyrrolidin-1-yl]pyrido[3,2-d]pyrimidin-2-yl}indazol-6-ol] | 0.1 to 1 | > 10 | A (A represents <100 nM) |
| Cc1c(O)c(-c2ncc3nc(N4CCNCC4)ccc3n2)cc2cn(C)nc12 [Compound 338, 2,7-dimethyl-5-[6-(piperazin-1-yl)pyrido[3,2-d]pyrimidin-2-yl]indazol-6-ol] | 0.1 to 1 | 1 to 10 | B (B represents 100-1000 nM) |
| Cc1nc2cc(O)c(-c3ccc4nc(N5CCC(NC(C)(C)C)C5)ccc4n3)cc2n1C (stereo not drawn) [Compound 339, 6-{6-[3-(tert-butylamino)pyrrolidin-1-yl]-1,5-naphthyridin-2-yl}-1,2-dimethyl-1,3-benzodiazol-5-ol] | 0.1 to 1 | 0.1 to 1 | B (B represents 100-1000 nM) |
| Cc1nc2cc(-c3ccc4nc(N5CCC(NC(C)(C)C)C5)ccc4n3)c(O)cc2n1C (stereo not drawn) [Compound 340, 6-{6-[3-(tert-butylamino)pyrrolidin-1-yl]-1,5-naphthyridin-2-yl}-2,3-dimethyl-1,3-benzodiazol-5-ol] | 0.1 to 1 | 0.1 to 1 | A (A represents <100 nM) |
| Cc1c(O)c(-c2ncc3nc(N4CCC5(CCN5)C4)ccc3n2)cc2cn(C)nc12 (stereo not drawn) [Compound 342, 5-(6-{1,6-diazaspiro[3.4]octan-6-yl}pyrido[3,2-d]pyrimidin-2-yl)-2,7-dimethylindazol-6-ol] | 0.1 to 1 | 0.1 to 1 | B (B represents 100-1000 nM) |
| Cc1cc2nc(-c3ccc4nc(N5CCC(NC(C)(C)C)C5)ccc4n3)cn2c(C)n1 (stereo not drawn) [Compound 344, N-tert-butyl-1-(6-{5,7-dimethylimidazo[1,2-c]pyrimidin-2-yl}-1,5-naphthyridin-2-yl)pyrrolidin-3-amine] | 1 to 10 | > 10 | D (D represents greater than 10 μM in K562 cells) |

Further lines, with some results ahead:

| IC50 (HTT) [µM] | IC50 (Target C) [µM] | Structure (SMILES) | Effect of Exemplary Compounds on Cell Viability, K562 (K562 cells) |
| --- | --- | --- | --- |
| 0.1 to 1 | 0.1 to 1 | CC(C)(C)NC1CCN(c2ccc3nc(-c4cc5oc(C6CC6)nc5cc4O)ccc3n2)C1 (stereo not drawn) [Compound 333, 6-{6-[3-(tert-butylamino)pyrrolidin-1-yl]-1,5-naphthyridin-2-yl}-2-cyclopropyl-1,3-benzoxazol-5-ol] | B (B represents 100-1000 nM) |
| < 0.1 | 0.1 to 1 | CC(C)(C)NC1CCN(c2ccc3nc(-c4cc5oc(CO)nc5cc4O)ccc3n2)C1 (stereo not drawn) [Compound 336, 6-{6-[3-(tert-butylamino)pyrrolidin-1-yl]-1,5-naphthyridin-2-yl}-2-(hydroxymethyl)-1,3-benzoxazol-5-ol] | A (A represents <100 nM) |
| 0.1 to 1 | 0.1 to 1 | Cn1cc2cc(-c3ccc4nc(N5CCC(NC67CC(O)(C6)C7)C5)ccc4n3)c(O)cc2n1 (stereo not drawn) [Compound 341, 5-{6-[3-({3-hydroxybicyclo[1.1.1]pentan-1-yl}amino)pyrrolidin-1-yl]-1,5-naphthyridin-2-yl}-2-methylindazol-6-ol] | B (B represents 100-1000 nM) |
| 1 to 10 | 1 to 10 | CCc1nc2cc(O)c(-c3ccc4nc(N5CCC(NC(C)(C)C)C5)ccc4n3)cc2o1 (stereo not drawn) [Compound 346, 6-{6-[3-(tert-butylamino)pyrrolidin-1-yl]-1,5-naphthyridin-2-yl}-2-ethyl-1,3-benzoxazol-5-ol] | C (C represents 1000-9999 nM) |
| < 0.1 | 0.1 to 1 | Cc1nc2cc(O)c(-c3ccc4nc(N5CC[C@H](N[C@H]6C[C@H](F)C6)C5)ccc4n3)cc2o1 [Compound 350, 2-methyl-6-{6-[(3S)-3-{[(1r,3r)-3-fluorocyclobutyl]amino}pyrrolidin-1-yl]-1,5-naphthyridin-2-yl}-1,3-benzoxazol-5-ol] | B (B represents 100-1000 nM) |
